# Results from ChEMBL document CHEMBL1201862, “PubChem BioAssay data set” (2004).
# Calls of active or inactive are those of the source.
# Columns and labels:
# Phospholipase A2 = Phospholipase A2 (Homo sapiens, UniProt P04054); assay type: functional;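 further: confirmatory dose-response counterscreen on phospholipase A2, testing hits that came from an ultra-high-throughput screen for ATG4B inhibitors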
# Cysteine protease ATG4B = Cysteine protease ATG4B (Homo sapiens, UniProt Q9Y4P1); assay type: functional;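 further: Fluorescence-based dose-response confirmation assay measuring inhibition of ATG4B activity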
# Sequence of Cysteine protease ATG4B (Q9Y4P1 whole entry): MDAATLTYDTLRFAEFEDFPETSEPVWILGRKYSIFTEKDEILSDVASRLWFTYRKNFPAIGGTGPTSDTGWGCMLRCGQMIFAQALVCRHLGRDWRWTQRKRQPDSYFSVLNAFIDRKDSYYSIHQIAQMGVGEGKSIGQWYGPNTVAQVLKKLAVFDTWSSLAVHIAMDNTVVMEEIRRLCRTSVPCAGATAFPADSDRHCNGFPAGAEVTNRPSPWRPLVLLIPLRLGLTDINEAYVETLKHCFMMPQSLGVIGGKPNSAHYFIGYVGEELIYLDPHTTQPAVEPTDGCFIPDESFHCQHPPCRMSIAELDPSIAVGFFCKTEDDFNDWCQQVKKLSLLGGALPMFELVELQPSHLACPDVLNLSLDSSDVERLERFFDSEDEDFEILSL
# [1] = target: Dual specificity tyrosine-phosphorylation-regulated kinase 1A (Rattus norvegicus, UniProt Q63470); assay type: biochemical, Homo sapiens
# [2] = target: Multidrug resistance protein CDR1 (Candida albicans, UniProt P43071); test: inhibition of Nile Red efflux via Candida CDR1 – S. cerevisiae AD1-8u, singleplex, Cherry Pick1 hits, dose response (AID 588606); assay type: functional
# INS1 = test: INS-1E survival protection against cytokine death – cell-based, luminescence, retest, dose response (AID 449756); assay type: functional; details: Rattus norvegicus;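 further: cell death triggered by IL-1 beta plus TNF-alpha plus IFN-gamma mixture; protective hits raise ATP signal compared with cytokine alone wells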
# Streptococcus = test: GAS UMAA2166 growth inhibition – luminescence, BacTiterGlo, counter-screen for streptokinase expression inhibitor project, dose response (AID 1915); assay type: functional, organism-based;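 further: potency for reduction of bacterial viability or growth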
# BJ [3] = test: growth inhibition of engineered Ras-driven BJ cells – cell-based, alamar blue fluorescence, cherrypicked samples, dose response (AID 2631); assay type: functional; details: Homo sapiens;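 further: confirmatory dose-response assay in RAS-dependent BJ fibroblasts engineered with TERT, LT and ST, with cytotoxicity read by fluorescence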
# BJ [4] = test: BJ-TERT fibroblast viability loss – cell-based, RAS-independent, luminescence, dose response (AID 1933); assay type: functional; details: Homo sapiens
# BJ [5] = test: BJ-TERT-LT-ST fibroblast viability loss – cell-based, RAS-independent, luminescence, dose response (AID 1935); assay type: functional; details: Homo sapiens;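 further: BJ fibroblasts immortalized with TERT plus LT and ST oncogenes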
# Protein RecA = target: T1, Protein RecA (Mycobacterium tuberculosis, UniProt P9WHJ3); test: Fluorescence Cell-Free Homogeneous Dose Retest to Identify Inhibitors of RecA-Intein Splicing Activity. [Related pubchem assays (depositor defined):AID2097, AID2223, AID489010, AID492950]; assay type: functional
# T1 sequence (P9WHJ3 whole entry): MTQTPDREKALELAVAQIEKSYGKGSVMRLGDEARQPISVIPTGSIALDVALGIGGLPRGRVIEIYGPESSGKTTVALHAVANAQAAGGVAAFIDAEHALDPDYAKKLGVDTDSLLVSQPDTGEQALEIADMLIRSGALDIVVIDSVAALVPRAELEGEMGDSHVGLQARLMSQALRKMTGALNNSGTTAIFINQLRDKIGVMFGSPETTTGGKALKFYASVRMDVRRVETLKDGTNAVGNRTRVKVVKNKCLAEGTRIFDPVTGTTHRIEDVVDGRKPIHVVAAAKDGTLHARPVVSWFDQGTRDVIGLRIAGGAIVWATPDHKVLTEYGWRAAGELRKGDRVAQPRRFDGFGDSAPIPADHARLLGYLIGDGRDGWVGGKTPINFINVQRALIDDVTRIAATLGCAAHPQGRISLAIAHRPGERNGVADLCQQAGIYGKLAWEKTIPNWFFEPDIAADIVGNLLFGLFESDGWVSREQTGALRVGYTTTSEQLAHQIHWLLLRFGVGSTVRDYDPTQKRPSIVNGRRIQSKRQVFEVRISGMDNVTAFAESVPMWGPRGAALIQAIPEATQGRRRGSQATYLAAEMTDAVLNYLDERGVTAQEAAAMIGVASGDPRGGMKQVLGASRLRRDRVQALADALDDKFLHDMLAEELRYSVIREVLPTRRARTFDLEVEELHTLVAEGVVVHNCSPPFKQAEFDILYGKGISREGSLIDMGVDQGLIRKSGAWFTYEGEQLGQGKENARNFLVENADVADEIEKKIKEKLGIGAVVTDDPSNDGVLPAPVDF
# Streptokinase A = target: T2, Streptokinase A (Streptococcus pyogenes serotype M1, UniProt P10520); test: viability-normalized secreted streptokinase activity reduction – plasminogen activation absorbance, OD405, dose response (AID 1914); assay type: functional, Streptococcus pyogenes M1 GAS;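 further: secreted streptokinase activity via plasminogen activation per viability signal from cell pellet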
# T2 sequence (P10520 whole entry): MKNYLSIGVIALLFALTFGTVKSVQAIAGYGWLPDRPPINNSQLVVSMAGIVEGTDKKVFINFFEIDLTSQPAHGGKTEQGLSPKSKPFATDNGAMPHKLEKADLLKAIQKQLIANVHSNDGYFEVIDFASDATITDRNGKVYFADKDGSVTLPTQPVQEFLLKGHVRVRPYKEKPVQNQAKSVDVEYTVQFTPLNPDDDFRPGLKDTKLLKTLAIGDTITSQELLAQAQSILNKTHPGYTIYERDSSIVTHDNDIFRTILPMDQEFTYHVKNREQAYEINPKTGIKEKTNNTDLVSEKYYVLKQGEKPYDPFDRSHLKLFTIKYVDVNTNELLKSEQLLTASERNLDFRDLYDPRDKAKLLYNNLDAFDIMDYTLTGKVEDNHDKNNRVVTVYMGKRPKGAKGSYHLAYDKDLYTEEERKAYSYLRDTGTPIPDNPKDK
# [6] = DRD fibroblast viability loss – cell-based, non-viral oncogenic, luminescence, dose response (AID 1934); assay type: functional; details: Homo sapiens
# [7] = test system: Streptococcus sp. 'group A'; test: Streptococcus pyogenes SK(-)GAS viability under kanamycin – luminescence, BacTiterGlo, confirmation, counter-screen for streptokinase expression inhibitor project, dose response (AID 1900); assay type: functional, organism-based
# [8] = HEK-293T cell viability reduction – luminescence, B-cell screen hits, cytotoxicity control for BCR NF-kB inhibitor project, dose response (AID 489021); assay type: functional, cell-based;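 further: HEK-293T cells carrying an NF-kB luciferase reporter; cells exposed to compound for about 14 hours before viability readout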
# BJ [9] = test: cells; assay type: functional, cell-based; details: Homo sapiens
# [10] = target: T3, Replicative DNA helicase DnaB (Mycobacterium tuberculosis, UniProt P9WMR3); test: DnaB intein splicing inhibitors, dose response, biochemical, cell-free fluorescence (AID 449749); assay type: functional
# T3 sequence (P9WMR3 whole entry): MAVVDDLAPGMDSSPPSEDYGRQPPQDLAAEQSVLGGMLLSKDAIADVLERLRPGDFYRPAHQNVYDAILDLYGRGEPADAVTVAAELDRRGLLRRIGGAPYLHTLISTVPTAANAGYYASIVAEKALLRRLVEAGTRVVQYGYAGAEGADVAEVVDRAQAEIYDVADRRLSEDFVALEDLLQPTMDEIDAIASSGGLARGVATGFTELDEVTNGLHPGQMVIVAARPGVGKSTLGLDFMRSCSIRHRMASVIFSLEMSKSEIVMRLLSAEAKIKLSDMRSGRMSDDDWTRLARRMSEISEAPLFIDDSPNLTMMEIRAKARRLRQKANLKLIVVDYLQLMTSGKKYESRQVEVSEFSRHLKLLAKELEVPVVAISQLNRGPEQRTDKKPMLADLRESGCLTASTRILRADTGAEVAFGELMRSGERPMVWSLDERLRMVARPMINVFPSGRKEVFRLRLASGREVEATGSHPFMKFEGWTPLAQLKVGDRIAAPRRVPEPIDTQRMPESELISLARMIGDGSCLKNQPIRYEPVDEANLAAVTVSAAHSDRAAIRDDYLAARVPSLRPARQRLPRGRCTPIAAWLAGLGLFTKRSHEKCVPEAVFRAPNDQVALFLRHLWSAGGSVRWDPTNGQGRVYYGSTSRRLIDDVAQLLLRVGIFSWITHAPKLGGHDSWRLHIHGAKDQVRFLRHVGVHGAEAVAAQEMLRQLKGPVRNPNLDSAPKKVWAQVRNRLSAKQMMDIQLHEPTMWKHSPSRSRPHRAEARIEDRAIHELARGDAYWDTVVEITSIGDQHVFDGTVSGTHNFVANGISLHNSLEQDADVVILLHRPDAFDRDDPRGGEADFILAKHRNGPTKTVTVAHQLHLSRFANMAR
# [11] = target: T4, Long-chain-fatty-acid--AMP ligase FadD28 (Mycobacterium tuberculosis, UniProt P9WQ59); test: Fluorescence polarization aasay to screen for inhibitors that compete for the binding of FadD28 to a bisubstrate Measured in Biochemical System Using Plate Reader - 2147-01_Inhibitor_Dose_CherryPick_Activity.; assay type: functional, Mycobacterium tuberculosis H37Rv
# T4 sequence (P9WQ59 whole entry): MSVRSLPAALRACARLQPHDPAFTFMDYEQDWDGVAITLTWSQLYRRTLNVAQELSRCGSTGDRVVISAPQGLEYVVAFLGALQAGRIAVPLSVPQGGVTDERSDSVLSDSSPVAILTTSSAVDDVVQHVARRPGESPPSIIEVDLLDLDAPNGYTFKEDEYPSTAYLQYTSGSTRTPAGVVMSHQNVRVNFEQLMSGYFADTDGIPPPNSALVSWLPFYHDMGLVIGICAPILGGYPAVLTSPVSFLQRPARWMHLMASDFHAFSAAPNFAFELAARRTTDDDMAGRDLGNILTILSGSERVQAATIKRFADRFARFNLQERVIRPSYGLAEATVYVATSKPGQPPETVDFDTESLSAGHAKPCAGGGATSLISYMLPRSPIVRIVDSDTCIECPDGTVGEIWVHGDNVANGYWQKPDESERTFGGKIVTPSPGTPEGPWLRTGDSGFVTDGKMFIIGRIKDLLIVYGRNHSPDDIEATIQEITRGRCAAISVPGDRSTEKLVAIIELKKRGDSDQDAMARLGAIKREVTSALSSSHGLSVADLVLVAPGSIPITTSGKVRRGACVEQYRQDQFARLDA
# [12] = target: Glucose-6-phosphate 1-dehydrogenase (Homo sapiens, UniProt P11413); test: inhibition of Homo sapiens G6PD, dose series – biochemical, fluorescence, selectivity assay for P. falciparum G6PD inhibitor project, dose response (AID 504792); assay type: functional
# Sequence of Glucose-6-phosphate 1-dehydrogenase (P11413 whole entry): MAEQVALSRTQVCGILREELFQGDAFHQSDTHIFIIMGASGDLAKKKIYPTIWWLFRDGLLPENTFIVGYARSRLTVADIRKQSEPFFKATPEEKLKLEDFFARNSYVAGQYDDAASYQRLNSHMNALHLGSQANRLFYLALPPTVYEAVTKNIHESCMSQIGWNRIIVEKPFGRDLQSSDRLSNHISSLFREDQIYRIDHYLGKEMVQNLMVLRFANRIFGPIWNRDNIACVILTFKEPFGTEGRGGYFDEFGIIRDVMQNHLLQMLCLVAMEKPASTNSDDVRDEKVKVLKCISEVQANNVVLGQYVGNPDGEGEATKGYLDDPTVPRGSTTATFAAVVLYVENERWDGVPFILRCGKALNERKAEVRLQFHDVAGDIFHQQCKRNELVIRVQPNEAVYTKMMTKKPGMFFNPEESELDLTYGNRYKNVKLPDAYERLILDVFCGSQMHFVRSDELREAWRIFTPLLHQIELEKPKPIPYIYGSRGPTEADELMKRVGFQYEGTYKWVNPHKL
# Genome polyprotein = Genome polyprotein (dengue virus type 2, UniProt P29990); test: flavivirus cap methylation enzyme inhibition – biochemical, confirmation dose response, primary screen (AID 588689); assay type: functional
# Sequence of Genome polyprotein (P29990 2492-3391 limits assumed): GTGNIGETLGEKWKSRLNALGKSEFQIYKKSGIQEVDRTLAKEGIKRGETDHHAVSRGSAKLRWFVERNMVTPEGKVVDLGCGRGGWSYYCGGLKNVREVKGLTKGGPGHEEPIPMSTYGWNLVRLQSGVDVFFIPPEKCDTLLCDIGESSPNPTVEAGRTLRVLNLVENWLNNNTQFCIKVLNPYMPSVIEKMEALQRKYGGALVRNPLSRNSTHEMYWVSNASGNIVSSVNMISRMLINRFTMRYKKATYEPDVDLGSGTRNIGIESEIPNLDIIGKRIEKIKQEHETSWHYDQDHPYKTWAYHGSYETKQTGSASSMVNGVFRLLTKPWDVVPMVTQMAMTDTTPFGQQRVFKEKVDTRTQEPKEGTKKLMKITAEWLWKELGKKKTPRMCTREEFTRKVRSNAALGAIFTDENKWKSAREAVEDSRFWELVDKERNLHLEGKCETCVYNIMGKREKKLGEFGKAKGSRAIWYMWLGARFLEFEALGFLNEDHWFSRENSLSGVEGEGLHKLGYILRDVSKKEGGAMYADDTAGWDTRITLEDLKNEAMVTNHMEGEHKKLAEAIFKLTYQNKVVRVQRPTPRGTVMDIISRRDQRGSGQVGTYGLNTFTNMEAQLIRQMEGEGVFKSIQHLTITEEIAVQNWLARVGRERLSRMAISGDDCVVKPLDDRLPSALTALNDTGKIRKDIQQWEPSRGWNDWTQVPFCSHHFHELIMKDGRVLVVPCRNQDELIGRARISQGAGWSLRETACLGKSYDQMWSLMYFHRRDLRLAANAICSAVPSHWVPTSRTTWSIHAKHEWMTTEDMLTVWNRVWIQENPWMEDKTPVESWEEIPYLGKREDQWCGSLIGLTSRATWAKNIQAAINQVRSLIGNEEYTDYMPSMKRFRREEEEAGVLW
# Hexokinase HKDC1 = target: T5, Hexokinase HKDC1 (Homo sapiens, UniProt Q2TB90); test: inhibition of HKDC1 glucose phosphorylation – biochemical, W721R variant, dose response (AID 504729); assay type: functional
# T5 sequence (Q2TB90 whole entry): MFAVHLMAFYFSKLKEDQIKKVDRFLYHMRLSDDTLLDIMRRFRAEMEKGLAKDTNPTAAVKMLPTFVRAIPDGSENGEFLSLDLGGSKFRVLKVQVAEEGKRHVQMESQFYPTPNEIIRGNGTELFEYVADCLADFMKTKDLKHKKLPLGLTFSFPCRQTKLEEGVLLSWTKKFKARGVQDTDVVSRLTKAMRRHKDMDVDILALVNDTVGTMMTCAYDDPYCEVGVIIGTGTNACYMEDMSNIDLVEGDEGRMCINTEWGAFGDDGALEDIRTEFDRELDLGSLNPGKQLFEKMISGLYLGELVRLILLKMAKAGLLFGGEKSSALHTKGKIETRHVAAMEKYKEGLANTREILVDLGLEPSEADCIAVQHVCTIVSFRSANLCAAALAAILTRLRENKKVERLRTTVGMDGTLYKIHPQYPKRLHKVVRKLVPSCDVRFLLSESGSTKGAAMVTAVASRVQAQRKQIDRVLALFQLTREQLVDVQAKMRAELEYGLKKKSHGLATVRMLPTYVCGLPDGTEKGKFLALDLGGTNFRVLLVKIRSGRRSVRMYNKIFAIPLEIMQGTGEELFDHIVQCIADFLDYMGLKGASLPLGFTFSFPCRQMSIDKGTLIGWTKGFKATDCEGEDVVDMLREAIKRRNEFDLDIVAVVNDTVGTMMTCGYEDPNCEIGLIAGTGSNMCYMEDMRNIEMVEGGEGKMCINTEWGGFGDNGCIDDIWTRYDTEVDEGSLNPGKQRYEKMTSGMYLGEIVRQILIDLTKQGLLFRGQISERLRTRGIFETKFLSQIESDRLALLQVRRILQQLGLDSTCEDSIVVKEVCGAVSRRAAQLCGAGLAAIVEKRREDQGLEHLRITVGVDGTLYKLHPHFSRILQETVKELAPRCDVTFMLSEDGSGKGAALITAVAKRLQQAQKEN
# [13] = target: T6, Polyadenylate-binding protein 1 (Homo sapiens, UniProt P11940); test: MLLE domain peptide-binding blockers, IC50 – biochemical, fluorescence polarization, FITC-PAM2 peptide, dose response (AID 602259); assay type: functional; details: read-out: IC50_Mean
# T6 sequence (P11940 whole entry, the tested form may be a part): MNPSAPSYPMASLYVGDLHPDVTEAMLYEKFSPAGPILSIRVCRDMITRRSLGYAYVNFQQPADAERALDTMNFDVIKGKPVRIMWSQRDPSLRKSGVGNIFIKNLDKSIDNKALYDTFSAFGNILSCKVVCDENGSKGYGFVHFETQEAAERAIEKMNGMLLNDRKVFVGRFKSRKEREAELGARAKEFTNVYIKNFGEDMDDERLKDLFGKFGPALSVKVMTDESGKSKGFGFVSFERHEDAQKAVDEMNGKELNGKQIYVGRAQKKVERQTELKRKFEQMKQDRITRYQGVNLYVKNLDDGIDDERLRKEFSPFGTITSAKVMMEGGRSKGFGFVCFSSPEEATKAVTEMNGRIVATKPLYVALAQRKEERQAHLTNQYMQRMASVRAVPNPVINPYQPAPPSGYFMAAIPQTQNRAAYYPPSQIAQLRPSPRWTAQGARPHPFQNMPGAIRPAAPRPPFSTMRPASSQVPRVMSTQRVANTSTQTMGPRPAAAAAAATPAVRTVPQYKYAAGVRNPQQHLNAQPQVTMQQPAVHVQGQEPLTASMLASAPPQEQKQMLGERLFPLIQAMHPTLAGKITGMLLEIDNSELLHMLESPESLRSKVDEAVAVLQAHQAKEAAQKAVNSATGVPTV
# [14] = target: T6, Polyadenylate-binding protein 1; test: MLLE binding blockers, Cy5 peptide tracer – biochemical, fluorescence polarization, Cy5-PAM2 peptide, secondary, miRNA deadenylation inhibitor project, dose response (AID 602260); assay type: functional; details: read-out: IC50_Mean
# [15] = target: Voltage-gated inwardly rectifying potassium channel KCNH2 (Homo sapiens, UniProt Q12809); details: Potency;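 further: confirmatory quantitative high-throughput screen measuring inhibition of hERG channel activity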
# Sequence of Voltage-gated inwardly rectifying potassium channel KCNH2 (Q12809 whole entry): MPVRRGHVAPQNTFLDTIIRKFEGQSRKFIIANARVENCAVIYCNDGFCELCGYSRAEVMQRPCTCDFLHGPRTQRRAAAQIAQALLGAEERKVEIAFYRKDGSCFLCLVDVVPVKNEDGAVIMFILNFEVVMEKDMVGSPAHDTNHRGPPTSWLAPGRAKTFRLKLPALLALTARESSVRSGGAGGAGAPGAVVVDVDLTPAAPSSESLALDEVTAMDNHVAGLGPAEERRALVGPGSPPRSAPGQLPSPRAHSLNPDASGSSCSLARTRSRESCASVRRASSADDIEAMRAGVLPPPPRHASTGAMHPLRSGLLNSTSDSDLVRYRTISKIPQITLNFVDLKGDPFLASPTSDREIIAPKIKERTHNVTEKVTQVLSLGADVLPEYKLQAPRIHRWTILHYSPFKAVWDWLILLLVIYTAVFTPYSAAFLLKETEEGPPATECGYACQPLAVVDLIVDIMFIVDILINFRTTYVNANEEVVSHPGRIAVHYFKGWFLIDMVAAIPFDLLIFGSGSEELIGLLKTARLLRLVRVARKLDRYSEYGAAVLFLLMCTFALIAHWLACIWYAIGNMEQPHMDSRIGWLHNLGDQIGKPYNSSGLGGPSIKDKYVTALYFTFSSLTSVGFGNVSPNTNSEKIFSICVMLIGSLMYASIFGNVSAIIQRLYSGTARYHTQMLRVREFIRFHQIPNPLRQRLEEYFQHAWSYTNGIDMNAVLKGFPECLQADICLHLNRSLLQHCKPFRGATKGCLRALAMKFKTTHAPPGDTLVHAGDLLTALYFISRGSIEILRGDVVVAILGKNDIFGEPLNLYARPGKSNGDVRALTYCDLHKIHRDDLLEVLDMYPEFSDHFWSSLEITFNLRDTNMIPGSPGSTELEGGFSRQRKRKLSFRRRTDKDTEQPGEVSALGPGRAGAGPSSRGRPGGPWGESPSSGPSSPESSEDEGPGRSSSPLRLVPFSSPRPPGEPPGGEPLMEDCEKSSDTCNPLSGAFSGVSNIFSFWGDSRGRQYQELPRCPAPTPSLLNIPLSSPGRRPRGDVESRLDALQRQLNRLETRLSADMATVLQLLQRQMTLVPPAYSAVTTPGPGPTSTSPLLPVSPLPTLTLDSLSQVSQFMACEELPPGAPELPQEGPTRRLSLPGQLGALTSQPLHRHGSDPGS
# Sequence of Phospholipase A2 (P04054 whole entry): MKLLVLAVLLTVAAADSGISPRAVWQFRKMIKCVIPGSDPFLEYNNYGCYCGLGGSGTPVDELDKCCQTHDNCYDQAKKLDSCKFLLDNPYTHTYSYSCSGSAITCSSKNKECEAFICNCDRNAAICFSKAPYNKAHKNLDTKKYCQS
structure (smiles),measurement,setting,value
O=c1c2ccccc2nc(/C=C/c2ccc(O)cc2)n1CCc1ccccc1,IC50,Phospholipase A2,12.2 µM (active)
same,IC50,Cysteine protease ATG4B,17.2 µM (active)
COc1ccc2c3c([nH]c2c1)C(C)N(CCC(=O)NN)CC3 (stereo not given),AC50,[1],1.45 µM (active)
O=C(NC(=S)Nc1ccc2[nH]c(=O)[nH]c2c1)c1cncc(Br)c1,EC50,[2],2.09 µM (active)
CC1CCc2c(sc3nc(C(C)(C)C)nc(N4CCN(C(=O)CCl)CC4)c23)C1 (stereo not given),AC50,INS1,5.84 µM (active)
same,EC50,Streptococcus,14.1 µM (active)
same,EC50,BJ [3],0.588 µM (active)
same,EC50,BJ [4],2.02 µM (active)
same,EC50,BJ [5],4.69 µM (inconclusive)
same,EC50,Protein RecA,0.481 µM (active)
same,EC50,Streptokinase A,1.79 µM (active)
same,EC50,[6],5.42 µM (inconclusive)
same,EC50,[7],2.96 µM (active)
same,IC50,[8],> 80 µM (inactive)
same,EC50,BJ [9],5.41 µM (inconclusive)
same,AC50,[10],2.45 µM (active)
Nc1ccc(S(=O)(=O)c2cc(O)c3ccccc3c2O)cc1,AC50,[11],> 100 µM (inactive)
same,IC50,[12],> 80 µM (inactive)
same,IC50,Genome polyprotein,5.47 µM (active)
same,IC50,Hexokinase HKDC1,18.1 µM (active)
Cc1ccc(-n2c(SCC(=O)N/N=C/c3c(C)nn(-c4ccccc4)c3C)nc3ccccc3c2=O)cc1,IC50,Phospholipase A2,1.86 µM (active)
same,IC50,Cysteine protease ATG4B,14.2 µM (active)
same,IC50,[13],> 66 µM (inactive)
same,IC50,[14],> 66 µM (inactive)
CCc1ccc(C(c2ccc(CC)cc2)C(Cl)Cl)cc1,AC50,[15],22.4 µM (inconclusive)
